# Assay results as given in US20010049389A1, “Arthropod-controlling composition” (priority 2000, published 2001).
# Columns and labels:
# Type in all cases: in vivo
# [1] = tested on: adult smokybrown cockroaches (Periplaneta fuliginosa); assay: Test Example 4: smoking formulation in 28 m^3 chamber, smokybrown cockroaches; conditions: 10 g smoking (Preparation example 25) in 28 m^3 chamber
# Text: In a test chamber of 3 m×4 m and 2.3 m in height (28 m^3), two plastic cups were put at two corners, wherein each cup has ten (5 males and 5 females) adult German cockroaches (Blattella germanica) therein. Ten grams (10 g) of the smoking obtained in Preparation example 25 and 50g of magnesium oxide were charged into each of the cells in an aluminum container having an aluminum wall. The cell charged magnesium oxide has small holes. The aluminum container was dipped into water in the plastic container set in the test chamber. The smoking was heated to release the vaporized active ingredient by the reaction heats of magnesium oxide with water. After 2 hours, knock-down percentage was observed. Further, the cockroaches were transferred to a clean plastic cup and given foods and water. The mortality was observed after 7 days.
# (§1) Furthermore, the same tests were performed except that six (3 males and 3 females) adult smokybrown cockroaches (Periplaneta fuliginosa) and six (3 males and 3 females) adult American cockroaches (Periplaneta americana) were used in place of ten German cockroaches.
# [2] = tested on: adult German cockroaches (Blattella germanica); assay: Test Example 3: direct spray of oil solution, knock-down of German cockroaches; conditions: 1.5 ml of 0.5% oil solution sprayed directly, one minute after spraying
# Description: A square of paper (side: 20 cm) was covered on the iron net set on the bottom of the metallic chamber (46 cm×46 cm, 70 cm in height). A container (8.75 cm in diameter, 7.5 cm in height, having 16-mesh net at the bottom and spreading butter on the wall for preventing escape) was set on the paper. In the container, ten (5 males and 5 females) adult German cockroaches (Blattella germanica) were released. By means of spray gun, 1.5 ml of the oil solution obtained in Preparation example 9 was applied to the test insects at a pressure of 0.42 kg/cm^2 from the upper part of the chamber. The container was taken out of the chamber 30 seconds after spraying and the test insects were transferred to a clean plastic cup. One minute after spraying, the knocked-down cockroaches were counted. As a result, the knock-down percentage was 100%. Reference compound was also tested and the knock-down percentage was 42%.
# [3] = tested on: centipede (Scolopendra subspinipes mutilans); assay: Test Example 22: oil-based aerosol spray, centipede; conditions: about 1000 mg of 1.0% oil-based aerosol sprayed, after 3 days
# Description: According to Preparation examples 10-14, 1.0% oil-based aerosol of the Pyrone Compound was obtained. A container (12.5 cm in diameter, 17.5 cm in height, bottom covered 16-mesh iron net and inside wall painted butter for preventing tested pill bugs to escape) having a centipede (Scolopendra subspinipes mutilans) therein was set on the bottom center of a glass cylinder having 20 cm in diameter and 60 cm in height. About 1000 mg of the above oil-based aerosol were sprayed to the centipede from the upper part of the cylinder. After 30 seconds, the centipede was taken out and put into a clean plastic cup and given food and water. It was observed that the centipede was dead after 3 days.
# [4] = tested on: 4-instar larvae of tobacco cutworm (Spodoptera litura); assay: Test Example 17: treated cabbage leaf disc, feeding damage by tobacco cutworm; conditions: 50 μg on cabbage leaf disc of 1 cm diameter, after 24 hours, 5 repetitions
# Description: A methanol solution (50 μg/20 μl) of the Pyrone Compound was prepared. The solution (20 μl) was painted on a cut leaf disc of cabbage (1 cm in diameter). After vaporizing methanol, the leaf disc was put on a filter paper, which was wet with 1 ml of water, in Petri dish making the painted surface upside. Two 4-instar larvae of tobacco cutworm (Spodoptera litura) were put in the Petri dish. After 24 hours, the damage of the leaf disc was observed and compared with the test result of the non-treated disc. The tests were repeated 5 times.
# [5] = tested on: adult German cockroaches (Blattella germanica); assay: Test Example 21: total-release aerosol in 28 m^3 chamber, German cockroaches; conditions: total-release aerosol (Preparation example 16) in 28 m^3 chamber, after 2 hours
# Description: In a test chamber of 3 m×4 m and 2.3 m in height (28 m^3), two plastic cups were put at two corners, wherein each cup has ten (5 males and 5 females) adult German cockroaches (Blattella germanica) therein. The formulation obtained in Preparation example 16 was set in the center of the bottom and the contents of the aerosol were totally released. After 2 hours, the knock-down percentage was 100%.
# [6] = tested on: adult American cockroaches (Periplaneta americana); assay: Test Example 5: heating fumigant (ceramic plate) in 5.8 m^3 chamber, American cockroaches; conditions: heating fumigant (Preparation example 24, 500 mg) at about 200° C. in 5.8 m^3 chamber
# Description: On the bottom of a cubic chamber having 1.8 m of side (5.8 m^3), the heating fumigant (ceramic plate) obtained in Preparation example 24 with an electric heater was set in the center. Two plastic cups were put at two corners in the chamber, wherein each cup has ten (5 males and 5 females) adult German cockroaches (Blattella germanica) therein. Two hours after turning on an electric current, the ceramic plate was heated to about 200° C. (200±5° C.) and the active ingredient was vaporized. The heating temperature was estimated by measuring a surface temperature of the ceramic plate with radiation pyrometer (TR-0506C produced by Minolta Company) in advance. Then, the knocked-down cockroaches were counted and the knock-down percentage was calculated. Further, the cockroaches were transferred to a clean plastic cup and given foods and water. The mortality was observed after 7 days.
# as §1
# [7] = tested on: female adult common mosquitoes (Culex pipiens pallens); assay: Test Example 2: oil solution spray in glass chamber, knock-down of common mosquitoes; conditions: 0.7 ml of 0.5% oil solution sprayed in 0.34 m^3 glass chamber, two repetitions
# Description: Ten (5 males and 5 females) adult houseflies (Musca domestica) were released in a glass chamber (70 cm cube, capacity: 0.34 m^3). Seven-tenth milliliter (0.7 ml) of the oil solution obtained in Preparation example 9 was applied into the chamber with a spray gun at a pressure of 0.9 kg/cm^2. Fifteen minutes after spraying, the knocked-down houseflies were counted. Reference compound was also tested.
# The same procedure was performed as in Test example 1 except that ten female adult common mosquitoes (Culex pipiens pallens) in place of houseflies were used. As a result of two repetitions, the knock-down percentage at 15 minutes after spraying was 100%.
# [8] = tested on: cat flea (Ctenocephalides felis) eggs; assay: Test Example 8: treated filter paper, hatching of cat flea eggs
# Description: A designated amount of the Pyrone Compound was dissolved in acetone to give a 0.2 ml solution, which was uniformly treated on a filter paper having 3.8 cm in diameter, and air-dried for one hour. The filter paper was set on an aluminum plate of 4 cm in diameter. Twenty cat flea (Ctenocephalides felis) eggs were put on the filter paper and the plate was kept at 25±3° C. and 70-90% of humidity in a plastic Petri dish. After 7 days, the hatching was observed. The tests were repeated three times and the results are given in […]
structure (smiles),measurement,setting,value
Cc1cc(O)c(C(=O)CC(C)C)c(=O)o1 [The Pyrone Compound],Knock-down percentage (%),[1]; after 2 hours,100%
same,Mortality (%),[1]; after 7 days,100%
same,knock-down percentage,[2],100%
same,state of the centipede after spraying,[3],dead
same,damage of the leaf disc compared with the non-treated disc,[4],clearly smaller
same,knock-down percentage,[5],100%
same,Mortality (%),[6]; after 7 days,67%
same,Knock-down percentage (%),[6]; two hours,100%
same,knock-down percentage at 15 minutes after spraying,[7],100%
same,Hatching ratio (%),"[8]; dosage 5 mg/m^2, after 7 days",1.7%
same,Hatching ratio (%),"[8]; dosage 25 mg/m^2, after 7 days",0%
same,Hatching ratio (%),"[8]; dosage 125 mg/m^2, after 7 days",0%
